Laboratory results published in patent publication US20150010644A1, “OXYGENATION OF THE MUCOSAL BARRIER BY ENTERAL ARTIFICIAL BLOOD TO PREVENT HYPOXIC BREAKDOWN OF THE MUCOSAL BARRIER” (THE REGENTS OF THE UNIVERSITY OF CALIFORNIA, priority 2011, published 2015).

Experiments:
shock = settings: ATP infusion before and during shock, given prior to hemorrhage; cited from earlier work
[1] = system: ATP concentration in intestine homogenates; assay: ATP assay in intestine homogenates, rat SAO model; format: in vivo; settings: lumenal injection 30 min prior
Protocol: (§1) Male Wistar rats (250-300 g, Harlan Sprague Dawley Inc, Indianapolis, Ind.) were randomly assigned to each group (n=4 per group). Rats were kept on solid food restriction for 12 hours prior to surgery with water ad libitum. […] Sham groups were treated the same with the arteries separated but not ligated.
(§2) Perfluorocarbon groups: Perfluorodecalin (PFC) (Sigma-Aldrich, St Louis, Mo.) with oxygen, previously bubbled into the solution for 10 min, was injected into the lumen of the intestine 30 min prior SHAM or SAO surgery (SHAM+PFC+O2, SAO+PFC+O2). PFC without oxygen bubbled into the solution was injected 30 min prior SHAM or SAO surgery (SHAM+PFC, SAO+PFC).
(§3) ATP-MgCl2 groups: ATP-MgCl2 (Sigma-Aldrich), 25 mg/kg BW was injected in the lumen of the intestine 30 min prior to SHAM or SAO surgery (SHAM+ATP, SAO+ATP).
(§4) pH groups: Acidic saline (pH 5.5) injected in the lumen of the intestine 30 min prior SHAM surgery or HEPES buffer (20 mM) injected into the lumen of the intestine 30 min prior to SHAM or SAO surgery.
(§5) Free radicals groups: The hydroxyl radical scavenger, dimethylthiourea (DMTU, Sigma-Aldrich; 2.0 mg/g BW) was injected in the lumen of the intestine 30 min prior to SAO (SAO+DMTU).
ATP assay: ATP concentrations in intestine homogenates were measured using ATP fluorometirc assay kit (BioVision, Mountain View, Calif.) according to manufacturer's protocol. Briefly jejuna sections were homogenized with perchloric acid (BioVision), centrifuged at 15,000×G for 5 min at 4° C. Samples were mixed with ATP reaction mix, incubated for 30 min protected from light and the fluorescence was measured with 535/587 (Ex/Em).

[2] = system: MDA equivalents (TBARS) in jejunal homogenates; assay: Thiobarbituric Acid Reactive Substances (TBARS) assay, rat SAO model; format: in vivo; settings: SAO 30 min; lumenal injection 30 min prior
Protocol: as §1, §2, §3
pH groups: Acidic saline (pH 5.5) injected in the lumen of the intestine 30 min prior SHAM surgery or HEPES buffer (20 mM) injected into the lumen of the intestine 30 min prior to SHAM or SAO surgery. […]
TBARS assay: Thiobarbituric Acid Reactive Substances (TBARS) was measured using the TBARS assay kit (Zeptometrix, Buffalo, N.Y.) according to manufacturer's protocol. […] Samples were centrifuged at 3000 rpm for 15 min and the supernatant were read at 530/550 (Ex/Em).

mucin2 [3] = assay: Mucin2 fluorescent staining of jejunal sections, rat SAO model; format: in vivo; settings: SAO 30 min, lumenal injection 30 min prior
Protocol: as §1, §2, §3, §4, §5
(§6) Tissue cryosections: After euthanasia, jejunal sections (˜1 cm in length) were excised without removal of lumenal contents and suspended in Tissue-Tek O.C.T. Compound (Sakura Finetek, Torrance, Calif.), snap frozen in isopentane/liquid nitrogen, and stored at −80° C. for analysis. Cryosections (5 μm thickness) along the longitudinal axis of the villi were used throughout all experiments. Cryosections were fixed in 10% formalin solution and processed in a non-blinded fashion.
(§7) Mucin and lectin staining: The simultaneous visualization of lectins and mucin was carried out using Lectin GS-II from Griffonia simplicifolia, Alexa Fluor® 594 Conjugate (EnzChek®, Invitrogen, Carlsbad, Calif.) and specific antibody for mucin2 with FITC secondary antibody 1:10000 (Santa Cruz Biotechnology) and nuclei counterstaining with DAPI. Sections were observed on an inverted microscope (20× objective) using the appropriate fluorescent filters.

[4] = system: trypsin activity in the intestinal wall; assay: In-situ zymography for trypsin activity in jejunal cryosections, rat splanchnic arterial occlusion (SAO) model; format: in vivo; settings: lumenal injection 30 min prior
Protocol: as §1
Control groups: Animals with saline injection into the lumen of the intestine, 3 ml/100 g Body Weight (BW), 30 min prior to SHAM or SAO surgery.
as §2
ATP-MgCl2 groups: ATP-MgCl2 (Sigma-Aldrich), 25 mg/kg BW was injected in the lumen of the intestine 30 min prior to SHAM or SAO surgery (SHAM+ATP, SAO+ATP). […]
After 30 min SAO or sham surgery, the animals were euthanized (Beuthanasia®; 0.22 ml/kg BW, IV).
as §6
In-situ tissue zymography: In-situ zymography for trypsin activity in cryosections was assessed by measurement of fluorescence resulting from the proteolytic cleavage of the substrate (1 mM, Na-benzoyl-L-arginine-7-amido-methylcoumarin hydrochloride; Sigma-Aldrich) as described elsewhere with propidium iodine counterstaining (Sigma-Aldrich) (9). Slides were observed under an inverted microscope (20× and 60× objectives).

mucin2 [5] = assay: Western blot for mucin2 of intestine homogenates, rat SAO model; format: in vivo; settings: SAO 30 min, lumenal injection 30 min prior
Protocol: as §1, §2, §3, §4, §5
(§8) Homogenates of intestine and lumenal contents: Jejunal segments were excised without removal of lumenal contents. For enzyme activity measurements, segments of intestine were homogenized with CelLytic™ (Sigma-Aldrich) without addition of protease inhibitors. For Western blot assays the intestine segments were homogenized as above in the presence of protease inhibitors (5 mM EDTA, 5 mM N-Ethylmaleimide, 25 mM iodoacetamide, 5 mM benzamidine, 300 mM acarbose, 5 mM 6-aminocaproic acid, 1 mM protease inhibitor cocktail, (Sigma-Aldrich). In separate experiments the small intestine of sham animals was excised, and the lumenal contents were flushed with 20 ml saline. Homogenates or lumenal contents were centrifuged (16,000 g for 15 min at 4° C.), the supernatant was collected and protein concentration was assessed with the bicinchoninic acid protein assay (Thermo Scientific).
(§9) Western blot: 20 μg of tissue homogenate were separated by SDS-PAGE. Membranes were incubated with primary antibodies as follows: mucin2, mucin13 and trypsin 1:1000 (Santa Cruz Biotechnology), pancreatic amylase 1:1000 (GeneTex, San Antonio, Tex.), intra- and extra-cellular domains of E-cadherin and TLR4 1:1000 (Abcam), intracellular domain of TLR4 1:1000 (Invitrogen). Secondary antibodies were diluted 1:20000 (Santa Cruz Biotechnology) and detected with Super Signal West Pico (Thermo Scientific). The exposed x-ray films were scanned and label intensity was measured using digital gel analysis (NIH ImageJ software).

mucin13 = assay: Western blot for mucin13 of intestine homogenates, rat SAO model; format: in vivo; settings: SAO 30 min, lumenal injection 30 min prior
Protocol: as §1, §2, §3, §4, §5, §8, §9

intestinal villi hypoxia = assay: Hypoxia staining (pimonidazole, Hypoxyprobe-1) of intestinal villi, rat SAO model; format: in vivo; settings: SAO 30 min; lumenal injection 30 min prior
Protocol: as §1, §2, §3, §4, §5
Hypoxia staining: In separate experiments tissue hypoxia was detected with Hypoxyprobe™-1 Kit (Natural Pharmacia International, Burlington, Mass., USA). This method utilizes a small molecular marker, pimonidazole, which after intravenous injection forms adducts with thiol containing proteins only in oxygen-starved cells. After general anesthesia as described above, pimonidazole-HCl (6 mg/100 g) was injected intravenously 30 min before SAO or SHAM; at 30 min the animal was euthanized and the jejuna section removed, embedded in O.C.T and frozen in liquid nitrogen. Then cryosections were immunostained using a rabbit antibody that binds to protein adducts of pimonidazole in hypoxic cells.

[6] = system: lectin staining (carbohydrate portion of mucin); assay: Lectin fluorescent staining (carbohydrate portion of mucin) of jejunal sections, rat SAO model; format: in vivo; settings: SAO 30 min; lumenal injection 30 min prior
Protocol: as §1, §2, §3, §4, §5, §6, §7

Substance: ATP-MgCl2
- survival of animals (shock): improves the survival of animals
- ATP concentration in intestinal tissue homogenates ([1]; SAO 30 min): significantly increased the ATP concentration
- ATP concentration in intestinal tissue homogenates ([1]; SHAM surgery): significantly increased the ATP concentration
- levels of MDA equivalents (TBARS) [2]: on average lower levels of MDA equivalents compared to SHAM or SAO, but they were not significant
- mucin2 staining levels (mucin2 [3]): significantly lower as compared to the SHAM group with saline but was not statistically different from SHAM-ATP-MgCl2
- mucin2 staining levels (mucin2 [3]; listed as ATP): preservation of mucin2 staining
- trypsin activity in the intestinal wall ([4]; SAO 30 min): Low levels of trypsin activity
- trypsin activity in the intestinal wall ([4]; SAO 30 min, listed as ATP): less trypsin activity in the wall as compared to the ischemic group with only lumenal saline
- trypsin activity in the intestinal wall ([4]; SHAM surgery): minimal trypsin activity
- mucin2 protein levels (relative density, Western blot) (mucin2 [5]): the same mucin2 and mucin13 protein levels as the sham
- mucin2 protein levels (relative density, Western blot) (mucin2 [5]; listed as ATP): preservation of mucin2 staining as well as protein levels of mucin2 and mucin13
- mucin13 protein levels / 17 kDa fragment (Western blot) (mucin13): the same mucin2 and mucin13 protein levels as the sham
- mucin13 protein levels / 17 kDa fragment (Western blot) (mucin13; listed as ATP): preservation of mucin2 staining as well as protein levels of mucin2 and mucin13
- hypoxia staining levels (intestinal villi hypoxia): significantly high levels of hypoxia staining as compared to SHAM groups
- lectin staining levels [6]: significantly lower as compared to the SHAM and SHAM-ATP-MgCl2
